Reference: patent publication US20210284647A1, “N-(3-(IMIDAZO[1,2-B]PYRIDAZIN-3-YLETHYNYL)-4-METHYLPHENYL)-5-PHENYL-4,5-DIHYDRO-1H-PYRAZOLE-1-CARBOXAMIDE DERIVATIVE, AND PHARMACEUTICAL COMPOSITION CONTAINING SAME AS ACTIVE INGREDIENT FOR TREATING KINASE-RELATED DISEASES” (VORONOIBIO INC., priority 2018, published 2021)
Counter-ions that a name gives are not always drawn.

Columns and labels:
human GST-RIPK1 = biological target: T1, human GST-RIPK1 (Homo sapiens, UniProt Q13546); test: RIPK1 inhibitory activity (ADP-Glo kinase assay); type: biochemical; settings: human GST-RIPK1 10 ng, ATP 50 uM, 25° C. for 4 hours, read-out: Enzyme IC50
T1 construct: GST; purchased signalchem
T1 sequence (Q13546 1-375 limits assumed): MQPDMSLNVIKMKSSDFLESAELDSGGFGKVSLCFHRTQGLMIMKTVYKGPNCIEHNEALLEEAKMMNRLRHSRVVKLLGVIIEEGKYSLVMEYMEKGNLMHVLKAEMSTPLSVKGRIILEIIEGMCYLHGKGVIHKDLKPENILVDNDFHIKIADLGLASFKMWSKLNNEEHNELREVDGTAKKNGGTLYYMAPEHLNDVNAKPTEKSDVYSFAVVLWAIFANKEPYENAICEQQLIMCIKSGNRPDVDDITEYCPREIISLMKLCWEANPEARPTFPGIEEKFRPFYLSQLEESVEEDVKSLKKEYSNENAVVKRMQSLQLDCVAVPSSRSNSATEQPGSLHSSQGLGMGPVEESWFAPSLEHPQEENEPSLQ
Method: The following experiment was performed to evaluate the inhibitory activity of the example compounds according to the present invention against RIPK1 (receptor-interacting serine/threonine protein kinase 1).
The example compound was reacted with the purified human GST-RIPK1 (1375, signalchem) enzyme to evaluate the enzyme inhibitory activity in the following manner. The composition of the reaction buffer used herein was as follows: 40 mM Tris-Hcl pH 7.4, 20 mM MgCl2, 0.5 mg/ml, BSA and 0.5 uM DTT. All the test materials were reacted in the reaction buffer. After reacting human GST-RIPK1 (1375, 10 ng), purified ATP (50 uM) and a specific substrate solution at 25° C. for 4 hours, the enzyme activity was confirmed using an in vitro ADP-Glo™ kinase assay (promega). Luminoscence was measured by reacting the enzyme activity reaction solution, ADP-Glo reaction solution, and enzyme activity detection solution at the ratio of 2:2:1. The degree of enzyme activity inhibition according to the treatment concentration of each compound was calculated based on the fluorescence of the enzyme activity of the solvent control not treated with the compound. At this time, the concentration of each compound inhibiting 50% of the enzyme activity was determined as IC50 (nM). IC50 of each compound was determined with three data sets and calculated using Prism (version 7.01, GraphPad) software.

[1] = system: human Jurkat T cells deficient in FADD; test: Cell protection effect under apoptosis-inducing condition (TNF-α); type: cell-based; settings: 40 ng of TNF-α, 50 hours, CellTiter-Glo, read-out: I2.I Cell EC50
Method: The cell protection effect of the compounds according to the present invention under the condition of inducing apoptosis by TNF-α was confirmed by […]. An apoptosis inducing factor such as TNF-α was treated to induce apoptosis of human Jurkat T cells deficient in FADD, to which the example compound was treated, and the cell protection effect was confirmed through the following analysis. Jurkat T cells deficient in FADD were cultured using RPMI medium (Hyclone) containing 10% FBS. When performing the test, the cells were seeded in a 96-well plate containing a medium suitable for the cell line at the density of 10,000 cells/well, and cultured in a 37° C. 5% CO2 incubator for 24 hours. Then, each well was treated with 40 ng of TNF-α, and the compounds prepared in the above examples were each treated with a 3-fold concentration gradient with 1 μM as the highest concentration. As the solvent control, dimethyl sulfoxide (DMSO) was treated at the concentration of 0.05% (v/v), which was the same concentration as that used for the compound treatment. Then, the cells were cultured for 50 hours. To confirm the degree of viability of the cells, a mixture provided in CellTiter-Gloe Luminescent Cell Viability Assay Kit (Promega) was added to the culture medium of the cells, followed by further culture at 37° C. for 30 minutes. Then, luminescence fluorescence was measured. The degree of inhibition of apoptosis induction according to the treatment concentration of each compound was calculated based on the fluorescence of the solvent control cells not treated with the compound. At this time, the concentration of each compound inhibiting 50% was determined as EC50 (μM). EC50 of each compound was calculated using Prism (version 7.01, GraphPad) software.

SMILES | IC50 (human GST-RIPK1) | EC50 [1]
S=C(Nc1cccc(C#Cc2cnc3cccnn23)c1)N1N=CCC1c1ccccc1 (centres unmarked) [Example 43, N-(3-(imidazo[1,2-b]pyridazin-3-ylethynyl)phenyl)-5-phenyl-4,5-dihydro-1H-pyrazole-1-carbothioamide] | 277 nM | 6.7 nM
O=C(Nc1ccc(F)c(C#Cc2cnc3cccnn23)c1)N1N=CCC1c1ccccc1 (centres unmarked) [Example 44, N-(4-fluoro-3-(imidazo[1,2-b]pyridazin-3-ylethynyl)phenyl)-5-phenyl-4,5-dihydro-1H-pyrazole-1-carboxamide 2,2,2-trifluoroacetate] | 18.1 nM | 0.37 nM
O=C(Nc1ccc(F)c(C#Cc2cnc3cccnn23)c1)N1N=CC[C@H]1c1ccccc1 [Example 45, (S)—N-(4-fluoro-3-(imidazo[1,2-b]pyridazin-3-ylethynyl)phenyl)-5-phenyl-4,5-dihydro-1H-pyrazole-1-carboxamide 2,2,2-trifluoroacetate] | 8.8 nM | 0.09 nM
O=C(Nc1ccc(F)c(C#Cc2cnc3cccnn23)c1)N1N=CC[C@@H]1c1ccccc1 [Example 46, (R)—N-(4-fluoro-3-(imidazo[1,2-b]pyridazin-3-ylethynyl)phenyl)-5-phenyl-4,5-dihydro-1H-pyrazole-1-carboxamide 2,2,2-trifluoroacetate] | 205 nM | 97.7 nM
O=C(Nc1cc(C#Cc2cnc3cccnn23)ccc1F)N1N=CCC1c1ccccc1 (centres unmarked) [Example 47, N-(2-fluoro-5-(imidazo[1,2-b]pyridazin-3-ylethynyl)phenyl)-5-phenyl-4,5-dihydro-1H-pyrazole-1-carboxamide 2,2,2-trifluoroacetate] | 50.1 nM | > 1000 nM
O=C(Nc1ccnc(C#Cc2cnc3cccnn23)c1)N1N=CCC1c1ccccc1 (centres unmarked) [Example 48, N-(2-(imidazo[1,2-b]pyridazin-3-ylethynyl)pyridin-4-yl)-5-phenyl-4,5-dihydro-1H-pyrazole-1-carboxamide 2,2,2-trifluoroacetate] | 3.4 nM | 1.4 nM
O=C(Nc1ccnc(C#Cc2cnc3cccnn23)c1)N1N=CC[C@H]1c1ccccc1 [Example 49, (S)—N-(2-(imidazo[1,2-b]pyridazin-3-ylethynyl)pyridin-4-yl)-5-phenyl-4,5-dihydro-1H-pyrazole-1-carboxamide 2,2,2-trifluoroacetate] | 1.9 nM | 0.3 nM
O=C(Nc1ccnc(C#Cc2cnc3cccnn23)c1)N1N=CC[C@@H]1c1ccccc1 [Example 50, (R)—N-(2-(imidazo[1,2-b]pyridazin-3-ylethynyl)pyridin-4-yl)-5-phenyl-4,5-dihydro-1H-pyrazole-1-carboxamide 2,2,2-trifluoroacetate] | > 1000 nM | 197 nM
O=C(Nc1cncc(C#Cc2cnc3cccnn23)c1)N1N=CCC1c1ccccc1 (centres unmarked) [Example 51, N-(5-(imidazo[1,2-b]pyridazin-3-ylethynyl)pyridin-3-yl)-5-phenyl-4,5-dihydro-1H-pyrazole-1-carboxamide 2,2,2--trifluoroacetate] | 1.22 nM | 1.84 nM
O=C(Nc1cc(C#Cc2cnc3cccnn23)ccn1)N1N=CCC1c1ccccc1 (centres unmarked) [Example 52, N-(4-(imidazo[1,2-b]pyridazin-3-ylethynyl)pyridin-2-yl)-5-phenyl-4,5-dihydro-1H-pyrazole-1-carboxamide 2,2,2-trifluoroacetate] | 775 nM | > 1000 nM
O=C(c1cccc(C#Cc2cnc3cccnn23)c1)N1N=CCC1c1ccccc1 (centres unmarked) [Example 53, (3-(imidazo[1,2-b]pyridazin-3-ylethynyl)phenyl)(5-phenyl-4,5-dihydro-1H-pyrazol-1-yl)methanone 2,2,2-trifluoroacetate] | 731 nM | 975 nM
Cc1ccc(C(=O)N2N=CCC2c2ccccc2)cc1C#Cc1cnc2cccnn12 (centres unmarked) [Example 54, (3-(imidazo[1,2-b]pyridazin-3-ylethynyl)-4-methylphenyl)(5-phenyl-4,5-dihydro-1H-pyrazol-1-yl)methanone 2,2,2-trifluoroacetate] | 32.6 nM | > 1000 nM
O=C(Nc1cccc(C#Cc2cnc3ccccn23)c1)N1N=CCC1c1ccccc1 (centres unmarked) [Example 55, N-(3-(imidazo[1,2-a]pyridin-3-ylethynyl)phenyl)-5-phenyl-4,5-dihydro-1H-pyrazole-1-carboxamide] | 13.4 nM | 1.6 nM
O=C(Nc1cccc(C#Cc2cnn3cccnc23)c1)N1N=CCC1c1ccccc1 (centres unmarked) [Example 56, 5-phenyl-N-(3-(pyrazolo[1,5-a]pyrimidin-3-ylethynyl)phenyl)-4,5-dihydro-1H--pyrazole-1-carboxamide] | 30.5 nM | 0.3 nM
O=C(Nc1cccc(C#Cc2cnc3cnccn23)c1)N1N=CCC1c1ccccc1 (centres unmarked) [Example 57, N-(3-(imidazo[1,2-a]pyrazin-3-ylethynyl)phenyl)-5-phenyl-4,5-dihydro-1H-pyrazole-1-carboxamide] | 23.8 nM | 0.3 nM
O=C(Nc1cccc(C#Cc2cnc3ncccn23)c1)N1N=CCC1c1ccccc1 (centres unmarked) [Example 58, N-(3-(imidazo[1,2-a]pyrimidin-3-ylethynyl)phenyl)-5-phenyl-4,5-dihydro-1H-pyrazole-1-carboxamide] | 15 nM | 3.6 nM
Nc1cccn2c(C#Cc3cccc(NC(=O)N4N=CCC4c4ccccc4)c3)cnc12 (centres unmarked) [Example 59, N-(3-((8-aminoimidazo[1,2-a]pyridin-3-yl)ethynyl)phenyl)-5-phenyl-4,5-dihydro-1H-pyrazole-1-carboxamide hydrochloride] | 127 nM | 17.6 nM
CC(=O)Nc1cccn2c(C#Cc3cccc(NC(=O)N4N=CCC4c4ccccc4)c3)cnc12 (centres unmarked) [Example 60, N-(3-((8-acetamidoimidazo[1,2-a]pyridin-3-yl)ethynyl)phenyl)-5-phenyl-4,5-dihydro-1H-pyrazole-1-carboxamide] | 64.1 nM | 0.4 nM
CNC(=O)Nc1cccn2c(C#Cc3cccc(NC(=O)N4N=CCC4c4ccccc4)c3)cnc12 (centres unmarked) [Example 61, N-(3-((8-(3-methylureido)imidazo[1,2-a]pyridin-3-yl)ethynyl)phenyl)-5-phenyl-4,5-dihydro-1H-pyrazole-1-carboxamide 2,2,2-trifluoroacetate] | 96.7 nM | 0.4 nM
O=C(Nc1cccn2c(C#Cc3cccc(NC(=O)N4N=CCC4c4ccccc4)c3)cnc12)C1CC1 (centres unmarked) [Example 62, N-(3-((8-(cyclopropanecarboxamido)imidazo[1,2-a]pyridin-3-yl)ethynyl)phenyl)-5-phenyl-4,5-dihydro-1H-pyrazole-1-carboxamide 2,2,2-trifluoroacetate] | 179 nM | 1.7 nM
O=C(Nc1cccn2c(C#Cc3cccc(NC(=O)N4N=CCC4c4ccccc4)c3)cnc12)C1CCC1 (centres unmarked) [Example 63, N-(3-((8-(cyclobutanecarboxamido)imidazo[1,2-a]pyridin-3-yl)ethynyl)phenyl)-5-phenyl-4,5-dihydro-1H-pyrazole-1-carboxamide 2,2,2-trifluoroacetate] | 39.6 nM | 0.9 nM
COC(=O)Nc1cccn2c(C#Cc3cccc(NC(=O)N4N=CCC4c4ccccc4)c3)cnc12 (centres unmarked) [Example 64, methyl (3-((3-(5-phenyl-4,5-dihydro-1H-pyrazole-1-carboxamido)phenyl)ethynyl)imidazo[1,2-a]pyridin-8-yl)carbamate] | 119 nM | 1.1 nM
